Assays:
[1] = molecular target: T1, Factor VIIa/tissue factor (Homo sapiens, UniProt P08709); experiment: FVIIa/tissue factor activity measured with S2288 in presence and absence of Zn and chelator; assay type: biochemical; settings: 10 nM FVIIa, 50 nM tissue factor
T1 construct: Single-chain factor VII may be converted to two-chain factor VIIa
Description: The activity of 10 nM FVIIa and 50 nM tissue factor in the presence and absence of Zn and chelator was measured with S2288 as described in Example 4

[2] = system: factor VIIa; experiment: Effect of zinc and calcium ions on the activity of factor VIIa (FIG. 1A); assay type: biochemical; settings: absence of tissue factor (FIG. 1A)
Excerpt: (§1) An effect of Ca^2+ ions is not easily contemplated in this model since the binding site for Ca^2+ in the serine protease domain is not nearby. […] Since histidines are prominant in zinc coordination we further propose that one or more of the residues of His 211, His 216 and His 256 are involved in the binding of Zn^2+ ions to factor VIIa.

[3] = system: factor VIIa-tissue factor complex; experiment: Effect of zinc and calcium ions on the activity of the factor VIIa-tissue factor complex (FIG. 1B); assay type: biochemical; settings: presence of tissue factor (FIG. 1B)
Excerpt: as §1

[4] = blood; cited from earlier work

T1 sequence (P08709 213-466 limits assumed): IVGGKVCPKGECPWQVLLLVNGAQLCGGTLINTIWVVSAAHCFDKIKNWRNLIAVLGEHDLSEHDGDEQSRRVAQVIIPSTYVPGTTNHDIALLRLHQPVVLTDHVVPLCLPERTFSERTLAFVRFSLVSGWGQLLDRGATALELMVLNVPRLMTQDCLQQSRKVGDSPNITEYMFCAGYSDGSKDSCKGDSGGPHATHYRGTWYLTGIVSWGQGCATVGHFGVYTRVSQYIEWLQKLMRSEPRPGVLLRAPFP
T1 sequence (P08709 61-212 partner limits assumed): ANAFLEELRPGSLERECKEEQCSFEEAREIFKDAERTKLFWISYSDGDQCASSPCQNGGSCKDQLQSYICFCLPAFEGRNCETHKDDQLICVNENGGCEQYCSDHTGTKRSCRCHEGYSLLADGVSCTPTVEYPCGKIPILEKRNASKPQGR
T1 sequence (P13726 33-295 partner): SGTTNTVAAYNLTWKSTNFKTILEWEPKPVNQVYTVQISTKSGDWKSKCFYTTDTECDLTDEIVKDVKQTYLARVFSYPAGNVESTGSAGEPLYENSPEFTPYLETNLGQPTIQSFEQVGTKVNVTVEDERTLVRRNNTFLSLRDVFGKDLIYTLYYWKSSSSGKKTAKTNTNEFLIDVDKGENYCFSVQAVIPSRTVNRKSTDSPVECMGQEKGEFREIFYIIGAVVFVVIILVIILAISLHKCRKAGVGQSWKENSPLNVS

O=C(NO)c1cc(C(=O)NO)[nH]n1 [NNC (28)]
activity at 50 µM ([1]; 100 μM ZnCl2, 50 μM compound): 55% | activity at 50 µM ([1]; No ZnCl2, 50 μM compound): 98%

[Zn+2] [Zn^2+]
inhibitory effect of Zn2+ on factor VIIa activity in presence of Ca2+ [2]: partly abolished by Ca^2+ ions in a competitive manner | inhibitory effect of Zn2+ on factor VIIa activity in presence of Ca2+ [3]: partly abolished by Ca^2+ ions in a competitive manner

heparin
half-life [4]: approximately 80 minutes

Source: patent US5859010A, “Factor VII -binding reagent” (Novo Nordisk A/S, priority 1996, dated 1999)
